Here are results for ten molecules from patent US4767749A, “Ester of (triarylphosphoranylidene)carbamic acid having diuretic and ability to lower plasma renin properties” (American Cyanamid Company, priority 1986, dated 1988).

One experiment has as its system plasma renin activity. The experiment is described as follows: Inhibition of evoked (drug-induced) elevation of plasma renin activity in conscious rats. It is filed as in vivo, male Wistar rats. The conditions noted are these: Rattus norvegicus; 25 mg/kg oral, 30 min before provocative treatment. The protocol: Inhibition of evoked increase of plasma renin activity was determined by the following test.
Compounds were tested for their ability to prevent drug-induced elevation of plasma renin activity (PRA) in concious, male Wistar rats (180-200 g, Charles River Lab.). PRA elevation was induced by a combined oral provacative treatment (C) of hydrochlorothiazide (10 mg/kg) and 1-(3-benzoyl-3-mercapto-2-methylpropionyl)-L-proline, acetate (U.S. Pat. No. 4,226,775) (one mg/kg), prepared by compounding in a mortar and pestle with preboiled 3% starch suspension. This treatment provided the daily maximum PRA. The daily minimum PRA was obtained from rats given oral starch suspension (S) alone. The magnitude of drug effect on PRA elevation was ascertained from rats pretreated orally with test agent (D), at the indicated doses, 30 minutes prior to administration of provacative treatment (C). The test agent was also compounded in preboiled 3% starch suspension. The dose volumes for both pretreatment and provocative treatment were 2 ml/kg. One hour after provocative treatment the rats were sacrificed by decapitation and the first 3 seconds of blood collected in two chilled Vacutainer® tubes (Becton-Dickinson, Rutherford, N.J.) containing 40 μl of 150 mg/ml tripotassium EDTA. The plasma fractions, obtained by centrifugation for 20 minutes at 4° C. and 3000 G, were incubated (one of each pair at 37° C., the other at 4° C.) at pH 6.8 in 50 mM phosphate buffer to produce angiotensin I. The incubates contained peptidase inhibitors to prevent angiotensin I degradation and the incubation buffer contained one mg/ml lysozyme (Sigma Grade III) used as an antiabsorbant. The incubates were diluted 20 fold in cold 100 mM Tris buffer (pH adjusted to 7.4 with glacial acetic acid) also containing one mg/ml lysozyme, and then frozen. Diluted incubates were assayed within 3 days for angiotensin I content by radioimmunoassay according to a modification of the method of Haber, et al., J. Clin. Endocrin., 29, 1349-1355 (1969).
PRA is calculated as follows:
PRA(ng AI/hour/ml plasma)=PRA 37° C.-PRA 4° C.
Percent inhibition of PRA elevation is calculated as follows: [formula]

Experiment [1] has as its system spontaneously hypertensive rats (SHR). The experiment is described as follows: Diuretic activity in spontaneously hypertensive rats. It is filed as in vivo, male spontaneously hypertensive rats (Okamoto strain). The conditions noted are these: 100 mg/kg by gavage with 0.9% sodium chloride loading 25 ml/kg; 0-5 hour urine. The protocol:
The diuretic activity of the compounds of this invention was also determined according to the method of Chan, P. S. and Poorvin, D., Sequential method for combined screening antihypertensive and diuretic agents in the same spontaneously hypertensive rat. Clinical and Experimental Hypertension, 1(6), 817-830 (1979).
Male spontaneously hypertensive rats (SHR) of Okamoto strain, 16 weeks old, Taconic Farms Inc. were used in the test. These rats were kept on Purina laboratory chow and tap water ad libitum for 8 weeks before use. One male adult rat (about 300 g) was dosed by gavage with a test compound at 100 mg/kg together with 0.9% sodium chloride loading at 25 ml/kg at zero hour. The test compound was suspended in 3% preboiled starch at 50 mg/ml. The rat was put in a metabolism cage. The 0-5 hour urine was collected and urinary sodium and potassium were determined using a Beckman Astra 4. The effects of representative compounds of the invention according to this test appear in Table III expressed in milliequivalents (mEQ) of urinary sodium and potassium excreted.

What is called inhibition in vivo is the percentage by which the read-out fell short of the control. Molecule `COC(=O)N=P(c1ccccc1)(c1ccccc1)c1ccccc1C(F)(F)F` [[diphenyl[2-(trifluoromethyl)phenyl]phosphoranylidene]carbamic acid, methyl ester] registered an inhibition in vivo at 25 mg/kg in the experiment with plasma renin activity of 49%. In experiment [1], the “Potassium (urinary excretion)” value amounted to 1.02 mEQ/5 Hours, the “Sodium (urinary excretion)” value was 1.71 mEQ/5 Hours and the “Volume (urine)” value stood at 18.5 mL.

`CCOC(=O)N=P(c1ccccc1)(c1ccccc1)c1ccccc1C` [[(2-Methylphenyl)diphenylphosphoranylidene]carbamic acid, ethyl ester] returned an inhibition in vivo at 25 mg/kg in the experiment on plasma renin activity of 92%. In experiment [1], the “Potassium (urinary excretion)” value amounted to 0.78 mEQ/5 Hours, the “Sodium (urinary excretion)” value came out at 2.68 mEQ/5 Hours and the “Volume (urine)” value stood at 25.5 mL.

Molecule `Cc1ccccc1P(=NC(=O)OCc1cccnc1)(c1ccccc1)c1ccccc1` [[(2-Methylphenyl)diphenylphosphoranylidene]carbamic acid, 3-pyridinylmethylester] came in with an inhibition in vivo at 25 mg/kg in the experiment with plasma renin activity of 75%. In addition, in experiment [1], the “Potassium (urinary excretion)” value was determined as 0.62 mEQ/5 Hours, the “Sodium (urinary excretion)” value is listed as 1.48 mEQ/5 Hours and the “Volume (urine)” value came out at 12.3 mL.

In the experiment with plasma renin activity, `CCOC(=O)N=P(c1ccccc1)(c1ccccc1C)c1ccccc1C` [[bis(2-methylphenyl)phenylphosphoranylidene]carbamic acid, ethyl ester] gave an inhibition in vivo at 25 mg/kg of 54%. In experiment [1], the “Potassium (urinary excretion)” value was found to be 0.73 mEQ/5 Hours, the “Sodium (urinary excretion)” value is 1.46 mEQ/5 Hours and the “Volume (urine)” value amounted to 14.5 mL.

`Cc1ccccc1P(=NC(=O)OC1CCOC1)(c1ccccc1)c1ccccc1` (stereo not shown) [[(2-Methylphenyl)diphenylphosphoranylidene]carbamic acid, tetrahydro-3-furanyl ester] yielded an inhibition in vivo at 25 mg/kg in the experiment on plasma renin activity of 93%. For the same molecule, in experiment [1], the “Potassium (urinary excretion)” value turned out to be 0.97 mEQ/5 Hours, the “Sodium (urinary excretion)” value is given as 2.71 mEQ/5 Hours and the “Volume (urine)” value came out at 22.3 mL.

In turn, `CCOC(=O)N=P(c1ccccc1)(c1ccccc1)c1ccccc1C(F)(F)F` [[diphenyl[2-(trifluoromethyl)phenyl]phosphoranylidene]carbamic acid, ethyl ester] yielded an inhibition in vivo at 25 mg/kg in the experiment on plasma renin activity of 75%. For the same molecule, in experiment [1], the “Potassium (urinary excretion)” value came out at 0.91 mEQ/5 Hours, the “Sodium (urinary excretion)” value was 2.12 mEQ/5 Hours and the “Volume (urine)” value came out at 19.3 mL.

In turn, `O=C(N=P(c1ccccc1)(c1ccccc1)c1ccccc1)OCc1cccnc1` [(triphenylphosphoranylidene)carbamic acid, 3-pyridinylmethyl ester] yielded an inhibition in vivo at 25 mg/kg in the experiment with plasma renin activity of 40%. In experiment [1], the “Potassium (urinary excretion)” value came to 1.00 mEQ/5 Hours, the “Sodium (urinary excretion)” value worked out at 1.60 mEQ/5 Hours and the “Volume (urine)” value came to 14.5 mL.

Take `COC(=O)N=P(c1ccccc1)(c1ccccc1)c1ccccc1Cl` [[(2-chlorophenyl)diphenylphosphoranylidene]carbamic acid, methyl ester]: the inhibition in vivo at 25 mg/kg in the experiment with plasma renin activity was found to be 98%. Moreover, in experiment [1], the “Potassium (urinary excretion)” value stood at 0.94 mEQ/5 Hours, the “Sodium (urinary excretion)” value turned out to be 2.30 mEQ/5 Hours and the “Volume (urine)” value was determined as 20.0 mL.

For `Cc1ccccc1P(=NC(=O)OCC1CC1)(c1ccccc1)c1ccccc1` [[(2-methylphenyl)diphenylphosphoranylidene]carbamic acid, cyclopropylmethyl ester], testing at 25 mg/kg in the experiment on plasma renin activity gave an inhibition in vivo of 72%. In experiment [1], the “Potassium (urinary excretion)” value was determined as 0.73 mEQ/5 Hours, the “Sodium (urinary excretion)” value came to 1.33 mEQ/5 Hours and the “Volume (urine)” value worked out at 12.0 mL.

Take `C=CCOC(=O)N=P(c1ccccc1)(c1ccccc1)c1ccccc1` [(triphenylphosphoranylidene)carbamic acid, 2-propenyl ester]: 25 mg/kg produced 67% inhibition in vivo in the experiment with plasma renin activity. Moreover, in experiment [1], the “Potassium (urinary excretion)” value is 0.67 mEQ/5 Hours, the “Sodium (urinary excretion)” value is given as 1.17 mEQ/5 Hours and the “Volume (urine)” value turned out to be 13.3 mL.
